The assay has as its target T1, ribonuclease A (RNase A) (Bos taurus, UniProt P61823).
T1 sequence (P61823 27-150): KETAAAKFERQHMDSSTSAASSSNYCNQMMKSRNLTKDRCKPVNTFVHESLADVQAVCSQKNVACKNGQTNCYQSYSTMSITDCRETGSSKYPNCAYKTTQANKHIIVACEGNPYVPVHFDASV
Description: RNase A labeling (esterification of carboxyl groups), extent by MALDI, labelled residues by trypsin digestion and mass spectrometry. To be noted: for extent of labeling of RNase A (average number of the eleven carboxylates esterified): 10 equivalents of diazo compound; for RNase A residues labelled (chemoselectivity): trypsin digestion coupled with mass spectrometry. In kind it is biochemical. As for the experimental part:
To address biocompatibility of diazo-compounds for esterification more directly, the relative esterification efficiency of these diazo compounds was compared with the eleven carboxyl groups present in ribonuclease A (RNase A).[24]
Only after the addition of 200 equivalents was any esterification with diazo-acetamide 1 observed which correlates with its lack of selectivity under aqueous conditions (Scheme 2).
Using trypsin digestion coupled with mass spectrometry, it was determined which residues were labelled and the results fit well with the observed chemoselectivity of each diazo compound. […] This provides further evidence that properly tuned diazo compounds can not only attain high levels of labelling, but can also selectively label specific residues.
Ribonuclease A (0.001 g, 0.073 μmol) was dissolved in MES buffer (10 mM, pH=5.5, 0.1 mL) and diazobenzylacetamide (0.0026 g, 14.6 μmol) was dissolved in acetonitrile (0.1 mL). The two solutions were combined and the reaction was allowed to stir 4 hours at 37° C.
Ribonuclease A (0.001 g, 0.073 μmol) was dissolved in MES buffer (10 mM, pH=5.5, 0.1 mL) and a stock solution of diazofluorene in acetonitrile was made (Stock solution: 0.001 g, 7.30 μmol, 1 mL CH3CN). The stock solution of diazo compound (0.1 mL, 0.730 μmol) was added to the ribonuclease solution and the reaction was allowed to stir 4 hours at 37° C. Any remaining diazo compound was then quenched by adding 0.1 M acetic acid (0.1 mL) and the reaction was concentrated and the extent of labeling was determined by MALDI spectroscopy to be ˜3 labels per RNase A.

The mark [1] stands for this setting: 4 hours at 37° C., MES buffer pH 5.5/acetonitrile.

As to `[N-]=[N+]=C(Cc1ccccc1)C(N)=O` [compound 1, Diazobenzylacetamide], the “extent of labeling of RNase A (average number of the eleven carboxylates esterified)” value by setting is: under setting [1], “incapable of labelling”; (4 hours at 37° C., MES buffer pH 5.5/acetonitrile, listed as diazobenzylacetamide) “no labeling was observed”. For the same compound, where the note is “200 equiv.”, the “RNase A residues labelled (chemoselectivity)” value is “comparably labelling residues Glu9, Asp14, Glu49, Glu111, and the C-terminal Val124”. Besides, the “extent of labeling of RNase A” value (200 equivalents of diazo compound, 4 hours at 37° C., MES buffer pH 5.5/acetonitrile) is under 1 label per RNase A.

As to `[N-]=[N+]=C1c2ccccc2-c2ccccc21` [compound 2, Diazofluorene], the “RNase A residues labelled (chemoselectivity)” value (10 equiv.) is “almost exclusively labelling Asp14, Glu49, Glu111, and Asp121”. In addition, the “extent of labeling of RNase A (average number of the eleven carboxylates esterified)” value under setting [1] is about 3 labels per RNase A.

(Values after patent publication US11091423B2, “Reagents and methods for esterification” (Wisconsin Alumni Research Foundation, priority 2013, dated 2021).)
